# Columns and labels:
# Type in all cases: in vivo
# [1] = system: wheat (Triticum aestivum); experiment: Test A pre-/postemergence plant response
# Procedure, shortened: (§1)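 Seeds sown in loam–sand blend; test chemicals in non-phytotoxic solvent with surfactant applied preemergence as directed soil spray and, concurrently, postemergence to plants 2–10 cm tall at one- to two-leaf stage. Greenhouse ~10 days, then visual injury rating vs untreated controls on 0–100 scale (0 = no effect, 100 = complete control).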
# [2] = system: morningglory (Ipomoea coccinea); experiment: Test A pre-/postemergence plant response
# Procedure, shortened: as §1
# [3] = system: barnyardgrass (Echinochloa crus-galli); experiment: Test A pre-/postemergence plant response
# Procedure, shortened: as §1
# [4] = system: pigweed (Amaranthus retroflexus); experiment: Test A pre-/postemergence plant response
# Procedure, shortened: as §1
# [5] = system: giant foxtail (Setaria faberi); experiment: Test A pre-/postemergence plant response
# Procedure, shortened: as §1
# corn (Zea mays) = experiment: Test A pre-/postemergence plant response
# Procedure, shortened: as §1
# [6] = system: velvetleaf (Abutilon theophrasti); experiment: Test A pre-/postemergence plant response
# Procedure, shortened: as §1
# [7] = system: large crabgrass (Digitaria sanguinalis); experiment: Test A pre-/postemergence plant response
# Procedure, shortened: as §1
# [8] = system: yellow nutsedge (Cyperus esculentus); experiment: Test B pre-/postemergence plant response; conditions: Preemergence
# Source text: (§2) Seeds of plant species selected from blackgrass (Alopecurus myosuroides), downy bromegrass (Bromus tectorum), green foxtail (Setaria viridis), Italian ryegrass (Lolium multiflorum), wheat (Triticum aestivum), wild oat (Avena fatua), catchweed bedstraw (Galium aparine), bermudagrass (Cynodon dactylon), surinam grass (Brachiaria decumbens), cocklebur (Xanthium strumarium), corn (Zea mays), large crabgrass (Digitaria sanguinalis), woolly cupgrass (Eriochloa villosa), giant foxtail (Setaria faberii), goosegrass (Eleusine indica), johnsongrass (Sorghum halepense), kochia (Kochia scoparia), lambsquarters (Chenopodium album), morningglory (Ipomoea coccinea), eastern black (E.B.) nightshade (Solanum ptycanthum), yellow nutsedge (Cyperus esculentus), pigweed (Amaranthus retroflexus), common ragweed (Ambrosia elation), Russian thistle (Salsola iberica), soybean (Glycine max), common (oilseed) sunflower (Helianthus annuus), and velvetleaf (Abutilon theophrasti) were planted and treated preemergence with test chemicals formulated in a non-phytotoxic solvent mixture which included a surfactant.
# (§3) At the same time, plants selected from these crop and weed species and also winter barley (Hordeum vulgare), canarygrass (Phalaris minor), chickweed (Stellaria media) and windgrass (Apera spica-venti) were treated with postemergence applications of some of the test chemicals formulated in the same manner. Plants ranged in height from 2 to 18 cm (1- to 4-leaf stage) for postemergence treatments.
# (§4) Plant species in the flooded paddy test consisted of rice (Oryza sativa), umbrella sedge (Cyperus difformis), ducksalad (Heteranthera limosa) and barnyardgrass (Echinochloa crus-galli) grown to the 2-leaf stage for testing. At time of treatment, test pots were flooded to 3 cm above the soil surface, treated by application of test compounds directly to the paddy water, and then maintained at that water depth for the duration of the test. Treated plants and controls were maintained in a greenhouse for 13 to 15 days, after which time all species were compared to controls and visually evaluated. Plant response ratings, summarized in Table B, are based on a scale of 0 to 100 where 0 is no effect and 100 is complete control. A dash (-) response means no test result.
# [9] = system: catchweed bedstraw (Galium aparine); experiment: Test B pre-/postemergence plant response; conditions: Preemergence
# Source text: as §2, §3, §4
# [10] = system: blackgrass (Alopecurus myosuroides); experiment: Test B pre-/postemergence plant response; conditions: Preemergence
# Source text: as §2, §3, §4
# [11] = Postemergence, 31 g ai/ha, 0 to 100 scale (0 no effect, 100 complete control)
# [12] = Postemergence, 125 g ai/ha, 0 to 100 scale, 0 no effect, 100 complete control
# [13] = Preemergence, 31 g ai/ha, 0 to 100 scale, 0 is no effect, 100 is complete control
# [14] = Preemergence, 125 g ai/ha, 0 to 100 scale (0 no effect, 100 complete control)
# [15] = 31 g ai/ha, 0 to 100 scale, 0 no effect, 100 complete control
compound,measurement,setting,value
Cc1cc(-c2ccc(Cl)cc2)nn1-c1c(OS(=O)(=O)c2ccccc2[N+](=O)[O-])cnn(C)c1=O [Compound 51],"Plant response rating, Wheat",[1]; [11],0
same,"Plant response rating, Wheat",[1]; [12],40
same,"Plant response rating, Wheat",[1]; [13],40
same,"Plant response rating, Wheat",[1]; [14],80
same,"Plant response rating, Morningglory",[2]; [11],0
same,"Plant response rating, Morningglory",[2]; [12],0
same,"Plant response rating, Morningglory",[2]; [13],0
same,"Plant response rating, Morningglory",[2]; [14],0
same,"Plant response rating, Barnyardgrass",[3]; [11],20
same,"Plant response rating, Barnyardgrass",[3]; [12],80
same,"Plant response rating, Barnyardgrass",[3]; [13],80
same,"Plant response rating, Barnyardgrass",[3]; [14],100
same,"Plant response rating, Pigweed",[4]; [11],0
same,"Plant response rating, Pigweed",[4]; [12],0
same,"Plant response rating, Pigweed",[4]; [14],0
same,"Plant response rating, Foxtail, Giant",[5]; [11],20
same,"Plant response rating, Foxtail, Giant",[5]; [12],70
same,"Plant response rating, Foxtail, Giant",[5]; [13],90
same,"Plant response rating, Foxtail, Giant",[5]; [14],100
same,"Plant response rating, Corn",corn (Zea mays); [11],20
same,"Plant response rating, Corn",corn (Zea mays); [12],60
same,"Plant response rating, Corn",corn (Zea mays); [13],20
same,"Plant response rating, Corn",corn (Zea mays); [14],80
same,"Plant response rating, Velvetleaf",[6]; [11],0
same,"Plant response rating, Velvetleaf",[6]; [12],0
same,"Plant response rating, Velvetleaf",[6]; [13],0
same,"Plant response rating, Velvetleaf",[6]; [14],0
same,"Plant response rating, Crabgrass, Large",[7]; [11],20
same,"Plant response rating, Crabgrass, Large",[7]; [12],70
same,"Plant response rating, Crabgrass, Large",[7]; [13],90
same,"Plant response rating, Crabgrass, Large",[7]; [14],100
same,"Plant response rating, Nutsedge, Yellow","[8]; 31 g ai/ha, scale 0 to 100 (0 no effect, 100 complete control)",0
same,"Plant response rating, Nutsedge, Yellow","[8]; 62 g ai/ha, scale 0 to 100",0
same,"Nutsedge, Yellow plant response rating","[8]; 8 g ai/ha, scale 0 to 100",0
same,"Nutsedge, Yellow plant response rating","[8]; 16 g ai/ha, scale 0 to 100",0
same,"Plant response rating, Galium",[9]; [15],0
same,"Plant response rating, Galium","[9]; 62 g ai/ha, scale 0 to 100",0
same,Galium plant response rating,"[9]; 8 g ai/ha, scale 0 to 100",0
same,Galium plant response rating,"[9]; 16 g ai/ha, scale 0 to 100",0
same,"Plant response rating, Blackgrass","[10]; 16 g ai/ha, scale 0 to 100 (0 no effect, 100 complete control)",98
same,"Plant response rating, Blackgrass",[10]; [15],98
same,"Plant response rating, Blackgrass","[10]; 62 g ai/ha, scale 0 to 100",100
same,Blackgrass plant response rating,"[10]; 8 g ai/ha, scale 0 to 100",50

# Source: patent publication US20100267561A1, “HERBICIDAL PYRIDAZINONE DERIVATIVES” (priority 2007, published 2010)
